Measurements: article PMC5791972 (PLoS ONE, 2018)
“Also recorded” adds a separate entry of the source. Read-outs that look alike come from different tables or passages of the source.

Legend:
[1] = Standard elevated plus maze; conditions: male, C57/BL6, mouse, in vivo, 3 mg/kg
C57/BL6 mice = assay: Standard elevated plus maze; conditions: 3 mg/kg oral, 60 min prior
[2] = Brain homogenate assay (unbound fraction in brain); type: in vitro ADME; conditions: rat
Method: Frozen rat brains were homogenized in PBS buffer (dilution factor D = 4). The homogenate was spiked with test compounds (1 μM final concentration, final concentration of DMSO was 0.1%) and subsequently dialyzed against PBS buffer for 8 hrs at 37°C in rapid equilibrium dialysis cells (RED-device, Pierce). At the end of the dialysis period, the dialysate was transferred into reaction tubes and mixed with an analytical internal standard. Tissue homogenate was added to buffer samples and buffer was added to tissue samples to ensure identical matrix composition for bioanalytical measurement. After protein precipitation using acetonitrile, samples were measured by LC-MS/MS. The free fraction was calculated as fu,app = (CPBS/Chomogenate). Since the brains were homogenized in the buffer, the observed free fraction values (fu,app) were extrapolated to the fractions unbound in the brain (fu*) based on the dilution (D) using the following formula: fu*=(1/D)/((1/fu,app−1)+1/D).

5-HT1D = 5-HT1D (Rattus norvegicus, UniProt P28565); assay: biochemical
Y1 (h) = target: T1, Y1 (h) (Homo sapiens, UniProt P25929); type: binding; conditions: 1.0E-06 M
T1 construct: (endogenous); host or cells: SK-N-MC cells
T1 sequence (P25929 1-384): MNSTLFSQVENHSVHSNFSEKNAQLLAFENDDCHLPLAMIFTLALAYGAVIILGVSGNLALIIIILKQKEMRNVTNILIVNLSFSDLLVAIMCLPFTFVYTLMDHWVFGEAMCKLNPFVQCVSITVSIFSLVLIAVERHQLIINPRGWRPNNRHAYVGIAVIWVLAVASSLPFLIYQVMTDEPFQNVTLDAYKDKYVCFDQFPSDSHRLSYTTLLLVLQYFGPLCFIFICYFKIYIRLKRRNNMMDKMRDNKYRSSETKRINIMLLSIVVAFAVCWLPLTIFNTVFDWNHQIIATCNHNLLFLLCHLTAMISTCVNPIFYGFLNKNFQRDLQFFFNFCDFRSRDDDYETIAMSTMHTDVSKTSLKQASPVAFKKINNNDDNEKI

[3] = target: T2, phosphatase 1B (h) (PTP1B) (Homo sapiens, UniProt P18031); assay: enzyme assay; type: biochemical; conditions: 1.0E-06 M
T2 construct: host or cells: E. coli
T2 sequence (P18031 1-435): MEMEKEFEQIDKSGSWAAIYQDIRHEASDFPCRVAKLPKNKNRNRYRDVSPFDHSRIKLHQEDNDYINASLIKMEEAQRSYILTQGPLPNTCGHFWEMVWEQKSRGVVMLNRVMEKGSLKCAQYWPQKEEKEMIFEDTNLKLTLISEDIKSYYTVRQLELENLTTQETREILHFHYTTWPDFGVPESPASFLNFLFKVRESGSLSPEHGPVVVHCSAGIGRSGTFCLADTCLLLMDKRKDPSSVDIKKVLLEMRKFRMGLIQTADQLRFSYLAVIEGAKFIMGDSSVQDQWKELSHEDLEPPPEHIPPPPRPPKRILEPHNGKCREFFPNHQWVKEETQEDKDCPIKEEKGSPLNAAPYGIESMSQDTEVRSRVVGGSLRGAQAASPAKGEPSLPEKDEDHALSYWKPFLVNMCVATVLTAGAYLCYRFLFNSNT

sst4 (h) = sst4 (h) (Homo sapiens, UniProt P31391); type: binding; conditions: 1.0E-06 M
A3 (h) = target: T3, A3 (h) (Homo sapiens, UniProt P0DMS8); type: binding; conditions: 1.0E-06 M
T3 construct: host or cells: HEK-293 cells
T3 sequence (P0DMS8 1-318): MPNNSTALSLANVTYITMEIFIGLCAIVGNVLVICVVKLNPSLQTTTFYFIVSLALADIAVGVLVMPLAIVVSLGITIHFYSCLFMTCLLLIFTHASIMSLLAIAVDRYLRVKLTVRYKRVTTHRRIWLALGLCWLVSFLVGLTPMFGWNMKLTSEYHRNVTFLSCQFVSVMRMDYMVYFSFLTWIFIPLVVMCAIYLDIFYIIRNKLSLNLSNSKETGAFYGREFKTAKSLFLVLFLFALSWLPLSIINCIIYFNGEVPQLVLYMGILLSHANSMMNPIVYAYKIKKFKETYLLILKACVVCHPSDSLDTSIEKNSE

β3 (h) = target: T4, β3 (h) (Homo sapiens, UniProt P13945); type: binding; conditions: 1.0E-06 M
T4 construct: (endogenous); host or cells: SK-N-MC cells

Cl- channel (GABA-gated) = type: binding, rat; conditions: 1.0E-06 M
NK1 (h) = target: T5, NK1 (h) (Homo sapiens, UniProt P25103); type: binding; conditions: 1.0E-06 M
T5 construct: (endogenous); host or cells: U-373MG cells

NK2 (h) = target: T6, NK2 (h) (Homo sapiens, UniProt P21452); type: binding; conditions: 1.0E-06 M
T6 construct: host or cells: CHO cells
T6 sequence (P21452 1-398): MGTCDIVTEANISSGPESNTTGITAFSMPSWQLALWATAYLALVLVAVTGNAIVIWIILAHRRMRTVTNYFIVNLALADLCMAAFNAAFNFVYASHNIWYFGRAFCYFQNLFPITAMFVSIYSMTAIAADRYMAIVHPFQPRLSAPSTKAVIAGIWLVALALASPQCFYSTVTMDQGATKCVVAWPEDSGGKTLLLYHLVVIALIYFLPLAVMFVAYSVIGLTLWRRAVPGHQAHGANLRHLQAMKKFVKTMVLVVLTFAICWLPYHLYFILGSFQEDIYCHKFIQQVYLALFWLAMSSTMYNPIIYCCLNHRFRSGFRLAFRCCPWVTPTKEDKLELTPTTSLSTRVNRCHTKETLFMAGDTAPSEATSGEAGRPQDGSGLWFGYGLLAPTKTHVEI

Chain of sst4 (h) (P31391 whole entry): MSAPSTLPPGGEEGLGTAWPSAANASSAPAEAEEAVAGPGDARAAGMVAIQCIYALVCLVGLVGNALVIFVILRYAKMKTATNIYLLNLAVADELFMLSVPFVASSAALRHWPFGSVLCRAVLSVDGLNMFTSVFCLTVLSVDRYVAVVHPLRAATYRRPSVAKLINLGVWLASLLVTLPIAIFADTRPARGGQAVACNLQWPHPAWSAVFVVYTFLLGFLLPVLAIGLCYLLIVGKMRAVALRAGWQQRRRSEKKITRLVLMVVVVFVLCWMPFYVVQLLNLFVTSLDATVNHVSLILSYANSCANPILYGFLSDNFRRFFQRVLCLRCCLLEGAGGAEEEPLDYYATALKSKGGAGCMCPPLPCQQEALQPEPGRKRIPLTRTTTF
T5 sequence (P25103 whole entry): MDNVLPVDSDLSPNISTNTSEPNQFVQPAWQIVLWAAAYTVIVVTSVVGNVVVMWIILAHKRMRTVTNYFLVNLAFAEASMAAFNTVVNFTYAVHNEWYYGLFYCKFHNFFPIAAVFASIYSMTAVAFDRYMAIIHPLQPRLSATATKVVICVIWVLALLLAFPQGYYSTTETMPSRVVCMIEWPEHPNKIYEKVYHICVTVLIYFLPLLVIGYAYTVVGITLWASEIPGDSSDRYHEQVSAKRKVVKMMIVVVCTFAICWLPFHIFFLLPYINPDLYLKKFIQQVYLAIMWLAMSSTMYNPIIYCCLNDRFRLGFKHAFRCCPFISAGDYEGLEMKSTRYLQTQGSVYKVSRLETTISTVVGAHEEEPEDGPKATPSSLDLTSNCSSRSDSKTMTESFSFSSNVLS
Chain of 5-HT1D (P28565 whole entry): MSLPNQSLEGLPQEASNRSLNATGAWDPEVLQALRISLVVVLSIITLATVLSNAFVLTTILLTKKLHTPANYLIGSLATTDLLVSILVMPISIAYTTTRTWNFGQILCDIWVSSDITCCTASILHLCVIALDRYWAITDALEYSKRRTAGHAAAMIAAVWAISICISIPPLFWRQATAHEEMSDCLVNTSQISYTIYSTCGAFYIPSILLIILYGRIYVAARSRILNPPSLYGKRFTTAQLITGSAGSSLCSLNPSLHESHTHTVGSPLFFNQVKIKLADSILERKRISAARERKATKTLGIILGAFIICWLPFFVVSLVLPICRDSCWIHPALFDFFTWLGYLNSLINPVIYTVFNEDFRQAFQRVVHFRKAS
T4 sequence (P13945 whole entry): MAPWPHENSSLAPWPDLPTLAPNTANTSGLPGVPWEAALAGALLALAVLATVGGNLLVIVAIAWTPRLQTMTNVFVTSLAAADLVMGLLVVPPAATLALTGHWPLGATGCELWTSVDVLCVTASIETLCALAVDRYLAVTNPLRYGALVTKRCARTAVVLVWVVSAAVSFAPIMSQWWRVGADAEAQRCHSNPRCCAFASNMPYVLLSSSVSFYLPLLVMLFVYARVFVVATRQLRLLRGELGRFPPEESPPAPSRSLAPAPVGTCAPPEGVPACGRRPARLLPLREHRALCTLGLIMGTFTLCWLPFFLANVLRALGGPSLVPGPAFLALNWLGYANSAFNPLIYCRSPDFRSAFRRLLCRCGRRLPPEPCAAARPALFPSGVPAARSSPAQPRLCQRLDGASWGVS

Cn1c(=O)n(CCCO)c(=O)c2c1nc(Oc1cccc(Cl)c1)n2Cc1ccc(Cl)cc1 [HC-070]
concentration at 60 min [1]: 782 ± 250 nM
number of open arm entries compared to vehicle (C57/BL6 mice): increased open arm entries; also recorded: significantly increased
nonspecific tissue binding ([2]; 8 h, 1 μM): > 99%
fraction unbound at 8 h, 1 μM ([2]; brain homogenate): 0.0028 ± 0.0002

Cn1c(=O)n(CCCO)c(=O)c2c1nc(Oc1cccc(OC(F)(F)F)c1)n2Cc1ccc(Cl)cc1 [HC-608]
inhibition at 1 µM (5-HT1D; read-out: % Inhibition 1st): -4.2%
inhibition at 1 µM (5-HT1D; read-out: % Inhibition 2nd): -8.8%
inhibition at 1 µM (5-HT1D; read-out: % Inhibition Mean): -6.5%
inhibition at 1 µM (Y1 (h); read-out: % Inhibition 1st): -12.8%
inhibition at 1 µM (Y1 (h); read-out: % Inhibition 2nd): -14.1%
inhibition at 1 µM (Y1 (h); read-out: % Inhibition Mean): -13.4%
% Inhibition 1st [3]: -6.7%
% Inhibition 2nd [3]: -5.9%
% Inhibition Mean [3]: -6.3%
inhibition at 1 µM (sst4 (h); read-out: % Inhibition 1st): -27%
inhibition at 1 µM (sst4 (h); read-out: % Inhibition 2nd): 9.5%
inhibition at 1 µM (sst4 (h); read-out: % Inhibition Mean): -8.8%
inhibition at 1 µM (A3 (h); read-out: % Inhibition 1st): 28.3%
inhibition at 1 µM (A3 (h); read-out: % Inhibition 2nd): 36.4%
inhibition at 1 µM (A3 (h); read-out: % Inhibition Mean): 32.3%
inhibition at 1 µM (β3 (h); read-out: % Inhibition 1st): 0.9%
inhibition at 1 µM (β3 (h); read-out: % Inhibition 2nd): -6.7%
inhibition at 1 µM (β3 (h); read-out: % Inhibition Mean): -2.9%
% Inhibition 1st (Cl- channel (GABA-gated)): 24.7%
% Inhibition 2nd (Cl- channel (GABA-gated)): 23.2%
% Inhibition Mean (Cl- channel (GABA-gated)): 23.9%
inhibition at 1 µM (NK1 (h); read-out: % Inhibition 1st): -2.6%
inhibition at 1 µM (NK1 (h); read-out: % Inhibition 2nd): -13%
inhibition at 1 µM (NK1 (h); read-out: % Inhibition Mean): -7.8%
inhibition at 1 µM (NK2 (h); read-out: % Inhibition 1st): -10%
inhibition at 1 µM (NK2 (h); read-out: % Inhibition 2nd): 18.9%
inhibition at 1 µM (NK2 (h); read-out: % Inhibition Mean): 4.4%
